Source: patent publication EP4752149A1, “OXYGEN-CONTAINING FUSED TRICYCLIC DERIVATIVE, AND PREPARATION METHOD THEREFOR AND USE THEREOF” (Tuojie Biotech (Shanghai) Co., Ltd., priority 2023, dated 2025)

What follows are molecules tested on Ovarian cancer cells (OVCAR3) (assay: Inhibitory activity against ovarian cancer cells (OVCAR3), CTG cell viability). Conditions: Homo sapiens, OVCAR-3, 168 h, 7 days with compound.
Assay type: cell-based
Protocol: Ovarian cancer cells (OVCAR3) were cultured using an RPMI 1640 culture medium containing 10% FBS in a cell incubator (37 °C, 5% CO2). On day one, the cells were plated in a 384-well plate at a cell concentration of 800 cells/well and cultured overnight in an incubator. On day two, the cells were treated with compounds. The highest compound concentration was 10 µM and was diluted 3-fold to obtain 9 concentrations, and the final concentration of DMSO was 0.1%. After the cells were cultured in the incubator for another 7 days, the cell viability was tested using a CTG Cell Viability Detection Reagent (MCE); the testing method was consistent with the method provided by the kit. Data were processed using GraphPad Prism 8, and IC50 was calculated. [formula] X: the logarithm of the compound concentration; Y: inhibition%. Table 2. The IC50 (nM) of compounds of the present disclosure against OVCAR3
In the case of C[C@H]1COc2c(-c3nc(Nc4ccc(N5CCOCC5=O)cc4F)ncc3C#N)cc(F)c3nc(C(C)(C)O)n1c23 [Example 13, (S)-4-(8-Fluoro-2-(2-hydroxypropan-2-yl)-3-methyl-3,4-dihydro-5-oxa-1,2a-diazaacenaphthylen-6-yl)-2-((2-fluoro-4-(3-oxomorpholino)phenyl)amino)pyrimidine-5-carbonitrile], the IC50 is reported as 901 nM. CNC(=O)c1ccc(Nc2ncc(Cl)c(-c3cc(F)c4nc(C(C)(C)O)n5c4c3OC[C@@H]5C)n2)cc1 [Example 11, (S)-4-((5-Chloro-4-(8-fluoro-2-(2-hydroxypropan-2-yl)-3-methyl-3,4-dihydro-5-oxa-1,2a-diazaacenaphthylen-6-yl)pyrimidin-2-yl)amino)-N-methylbenzamide] was tested, and the IC50 was 673 nM. C[C@H]1COc2c(-c3nc(Nc4ccc(C(=O)N5CC[C@H](N(C)C)C5)c(F)c4)ncc3Cl)cc(F)c3nc(C(C)(C)O)n1c23 [Example 35, (4-((5-Chloro-4-((S)-8-fluoro-2-(2-hydroxypropan-2-yl)-3-methyl-3,4-dihydro-5-oxa-1,2a-diazaacenaphthylen-6-yl)pyrimidin-2-yl)amino)2-fluorophenyl)((S)-3-(dimethylamino)pyrrolidin-1-yl)methanone] gave an IC50 of 202 nM. With C[C@H]1COc2c(-c3nc(Nc4ccc(N5CCOCC5=O)c(Cl)c4)ncc3Cl)cc(F)c3nc(C(C)(C)O)n1c23 [Example 25, (S)-4-(2-Chloro-4-((5-chloro-4-(8-fluoro-2-(2-hydroxypropan-2-yl)-3-methyl-3,4-dihydro-5-oxa-1,2a-diazaacenaphthylen-6-yl)pyrimidin-2-yl)amino)phenyl)morpholin-3-one] the IC50 was 409 nM. C[C@H]1COc2c(-c3nc(Nc4ccc(C(=O)N5CC[C@@H](N(C)C)C5)c(Cl)c4)ncc3Cl)cc(F)c3nc(C(C)(C)O)n1c23 [Example 38, (2-Chloro-4-((5-chloro-4-((S)-8-fluoro-2-(2-hydroxypropan-2-yl)-3-methyl-3,4-dihydro-5-oxa-1,2a-diazaacenaphthylen-6-yl)pyrimidin-2-yl)amino)phenyl)((R)-3-(dimethylamino)pyrrolidin-1-yl)methanone] gave an IC50 of 690 nM. Work on C[C@H]1COc2c(-c3nc(Nc4ccc(S(C)(=N)=O)cc4)ncc3Cl)cc(F)c3nc(C(C)(C)O)n1c23 (stereo partly drawn) [Example 19, (4-((5-Chloro-4-((S)-8-fluoro-2-(2-hydroxypropan-2-yl)-3-methyl-3,4-dihydro-5-oxa-1,2a-diazaacenaphthylen-6-yl)pyrimidin-2-yl)amino)phenyl)(methyl)sulfinamide] yielded an IC50 of 276 nM. In the case of C[C@H]1COc2c(-c3nc(Nc4ccc(C(=O)N5CC[C@H](N(C)C)C5)c(Cl)c4)ncc3Cl)cc(F)c3nc(C(C)(C)O)n1c23 [Example 36, (2-Chloro-4-((5-chloro-4-((S)-8-fluoro-2-(2-hydroxypropan-2-yl)-3-methyl-3,4-dihydro-5-oxa-1,2a-diazaacenaphthylen-6-yl)pyrimidin-2-yl)amino)phenyl)((S)-3-(dimethylamino)pyrrolidin-1-yl)methanone], the IC50 is reported as 961 nM. In the case of C[C@H]1COc2c(-c3nc(Nc4ccc(C(=O)N5CC[C@@H](N(C)C)C5)cc4)ncc3Cl)cc(F)c3nc(C(C)(C)O)n1c23 [Example 42, (4-((5-Chloro-4-((S)-8-fluoro-2-(2-hydroxypropan-2-yl)-3-methyl-3,4-dihydro-5-oxa-1,2a-diazaacenaphthylen-6-yl)pyrimidin-2-yl)amino)phenyl)((R)-3-(dimethylamino)pyrrolidin-1-yl)methanone], the IC50 is reported as 674 nM. In the case of C[C@H]1COc2c(-c3nc(Nc4ccc(N5CCOCC5=O)c(F)c4)ncc3Cl)cc(F)c3nc(C(C)(C)O)n1c23 [Example 24, (S)-4-(4-((5-Chloro-4-(8-fluoro-2-(2-hydroxypropan-2-yl)-3-methyl-3,4-dihydro-5-oxa-1,2a-diazaacenaphthylen-6-yl)pyrimidin-2-yl)amino)2-fluorophenyl)morpholin-3-one], the IC50 is reported as 255 nM. C[C@H]1COc2c(-c3nc(Nc4ccc(CC#N)cc4)ncc3Cl)cc(F)c3nc(C(C)(C)O)n1c23 [Example 29] showed an IC50 of 335 nM.
